Some test systems named below: 786-0 renal; A498 renal; EKVX NSCLC; HCT-116 colon; HOP-62 NSCLC; KM12 colon; MALME-3M melanoma; NCI-H226 lung; NCI-H522 lung; RXF 393 renal; SF-268 CNS; SF-295 CNS; SK-MEL-2 melanoma; SK-MEL-28 melanoma; UO-31 renal; CAKI-1 renal; OVCAR-4 ovarian; SW-620 colon.
Experiment in all cases: NCI anticancer screen, dose series, 48 h

Structures are written as SMILES.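 Briefly, cells in 96-well plates were exposed to five compound concentrations for 48 h, and endpoints were estimated by linear interpolation. TGI is the concentration that stops growth completely.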 A value given as a limit tells only on which side of the number the result lay.

As to `CC1(C)CC(=O)CC(=Nc2ccc([N+](=O)[O-])cc2)C1`, the TGI in the assay with 786-0 renal is more than 100 µM; in the assay on A498 renal, more than 100 µM; in the assay on EKVX NSCLC it was more than 100 µM; in the assay with HCT-116 colon, 40.9 µM; in the assay with HOP-62 NSCLC it was more than 100 µM; in the assay with KM12 colon, more than 100 µM. The TGI in the assay on MALME-3M melanoma, in the assay with NCI-H226 lung, in the assay with NCI-H522 lung, in the assay on RXF 393 renal, in the assay with SF-268 CNS and in the assay with SF-295 CNS was more than 100 µM throughout. Moreover, the TGI with SK-MEL-2 melanoma, in the assay on SK-MEL-28 melanoma and in the assay with UO-31 renal was more than 100 µM throughout.

For `CS(=O)(=O)c1ccc(-c2cc(-c3ccc(S(C)(=O)=O)cc3)[n+](-c3cc(-c4ccccc4)c([O-])c(-c4ccccc4)c3)c(-c3ccc(S(C)(=O)=O)cc3)c2)cc1`, the TGI in the assay with 786-0 renal, in the assay on A498 renal, in the assay on CAKI-1 renal, in the assay on EKVX NSCLC, with HCT-116 colon and in the assay with HOP-62 NSCLC was more than 100 µM throughout. In addition, the TGI with KM12 colon, with MALME-3M melanoma, in the assay with NCI-H226 lung, in the assay on NCI-H522 lung, with OVCAR-4 ovarian and in the assay with RXF 393 renal was more than 100 µM in each case. Moreover, the TGI with SF-268 CNS, in the assay with SF-295 CNS, in the assay with SK-MEL-2 melanoma, in the assay with SK-MEL-28 melanoma, in the assay with SW-620 colon and with UO-31 renal was more than 100 µM each time.

Turning to `COC(=O)C(C(=O)Cc1ccccc1[N+](=O)[O-])C(=O)OC`, the TGI with 786-0 renal, in the assay with CAKI-1 renal, with EKVX NSCLC, with HCT-116 colon, in the assay on HOP-62 NSCLC and in the assay on KM12 colon was more than 100 µM throughout. The TGI with MALME-3M melanoma, in the assay with NCI-H226 lung, in the assay on NCI-H522 lung, in the assay on OVCAR-4 ovarian, with RXF 393 renal and in the assay on SF-268 CNS was more than 100 µM each time. Moreover, the TGI in the assay with SF-295 CNS, in the assay with SK-MEL-2 melanoma, in the assay on SK-MEL-28 melanoma, in the assay on SW-620 colon and in the assay on UO-31 renal was more than 100 µM in each case.

In the case of `C=CN1C(=O)[C@H](Oc2ccccc2)[C@@H]1c1ccccc1`, the TGI is 33.1 µM with 786-0 renal; more than 100 µM with A498 renal; more than 100 µM in the assay with EKVX NSCLC; more than 100 µM in the assay with HCT-116 colon; 92.2 µM with HOP-62 NSCLC; more than 100 µM with KM12 colon. Also, the TGI in the assay with MALME-3M melanoma was more than 100 µM; in the assay with NCI-H226 lung, more than 100 µM; in the assay on NCI-H522 lung, 91.3 µM; in the assay with RXF 393 renal, 52.5 µM; with SF-268 CNS, more than 100 µM; in the assay on SF-295 CNS, more than 100 µM. Further, the TGI with SK-MEL-2 melanoma, in the assay on SK-MEL-28 melanoma, in the assay with SW-620 colon and in the assay with UO-31 renal was more than 100 µM each time.

Take `Cc1nn(C(=O)CC(=O)Nc2ccc(Cl)cc2)c(C)c1N=Nc1ccccc1C(=O)O`: the TGI with 786-0 renal, in the assay on A498 renal, in the assay on CAKI-1 renal, in the assay with EKVX NSCLC, with HCT-116 colon and in the assay with HOP-62 NSCLC was more than 100 µM each time. In addition, the TGI in the assay on KM12 colon, in the assay on MALME-3M melanoma, with NCI-H522 lung, with OVCAR-4 ovarian, with SF-268 CNS and in the assay with SF-295 CNS was more than 100 µM each time. In addition, the TGI in the assay with SK-MEL-2 melanoma, in the assay on SK-MEL-28 melanoma, in the assay with SW-620 colon and in the assay with UO-31 renal was more than 100 µM in each case.

Consider `CN(CCN(C)C(=O)CCn1cc(F)c(=O)[nH]c1=O)C(=O)CCn1cc(F)c(=O)[nH]c1=O`, for which the TGI with 786-0 renal, with EKVX NSCLC, with HCT-116 colon, in the assay on HOP-62 NSCLC, with KM12 colon and with MALME-3M melanoma was more than 100 µM throughout. The TGI with NCI-H226 lung is more than 100 µM; in the assay with NCI-H522 lung it was 12.5 µM; in the assay on OVCAR-4 ovarian it was more than 100 µM; in the assay on RXF 393 renal, more than 100 µM; in the assay with SF-268 CNS it was more than 100 µM; in the assay on SF-295 CNS, more than 100 µM. The TGI with SK-MEL-2 melanoma, in the assay on SK-MEL-28 melanoma, in the assay with SW-620 colon and in the assay on UO-31 renal was more than 100 µM throughout.

For the compound `CCOC(=O)C1SC(=Nc2ccccc2)N=C1C` (stereo not given), the TGI in the assay with 786-0 renal, in the assay on A498 renal, with EKVX NSCLC, with HCT-116 colon, with HOP-62 NSCLC and with KM12 colon was more than 100 µM throughout. The TGI in the assay on MALME-3M melanoma, with NCI-H226 lung, in the assay on NCI-H522 lung, in the assay on OVCAR-4 ovarian, in the assay on RXF 393 renal and in the assay with SF-268 CNS was more than 100 µM throughout. Moreover, the TGI in the assay on SF-295 CNS, in the assay on SK-MEL-2 melanoma, with SK-MEL-28 melanoma, in the assay with SW-620 colon and with UO-31 renal was more than 100 µM each time.

For `CCOC1c2cc(C(C)C)c(O)c(O)c2[C@@]23CCCC(C)(C)C2C1OC3=O` (stereo not given in full), the TGI in the assay on 786-0 renal, in the assay with CAKI-1 renal, in the assay on EKVX NSCLC, in the assay with HCT-116 colon, in the assay on HOP-62 NSCLC and with MALME-3M melanoma was more than 100 µM in each case. Besides, the TGI is more than 100 µM with NCI-H226 lung; 98.6 µM in the assay on NCI-H522 lung; more than 100 µM in the assay with RXF 393 renal; more than 100 µM in the assay on SF-268 CNS; more than 100 µM in the assay with SF-295 CNS; more than 100 µM with SK-MEL-2 melanoma. Also, the TGI in the assay on SK-MEL-28 melanoma, in the assay on SW-620 colon and in the assay on UO-31 renal was more than 100 µM in each case.

Source of the values: PubChem BioAssay (NCI).
